Experimental data published in patent EP0527889B1, “QUINOLIZINONE TYPE COMPOUNDS” (priority 1990, dated 1991).
Where a name gives a salt, the structure may show the parent alone.

Legend:
Experiment in all cases: In vitro antibacterial activity, MIC by agar dilution
Assay type in all cases: cell-based
[1] = tested on: Enterococcus faecium ATCC 8043; settings: BHI agar, 35-37°C, 20-24 hours, unit assumed
Experimental: (§1) Each plate was inoculated with 1:100 (or 1:10 for slow growing strains, primarily Micrococcus and Streptococcus) dilutions of up to 32 different microorganisms, using a Steers replicator block calibrated to deliver approximately 10^4 colony forming units (CFUs). The inoculated plates were incubated at from about 35°C to about 37°C for approximately 20-24 hours. In addition, a control plate using BHI agar containing no test compound was prepared and incubated at the beginning and at the end of each test. Ciprofloxacin was used as the control antibiotic.
(§2) The MIC was defined as the lowest concentration of test compound yielding no growth (a slight haze or sparsely isolated colonies at the inoculum spot) as compared to the growth control containing no test compound.

[2] = tested on: Streptococcus pyrogenes EES61; settings: BHI agar, 35-37°C, 20-24 hours, unit assumed
Experimental: as §1, §2

[3] = tested on: Pseudomonas aeruginosa BMH10; settings: BHI agar, 35-37°C, 20-24 hours, unit assumed
Experimental: as §1, §2

[4] = tested on: Providencia stuartii CMX 640; settings: BHI agar, 35-37°C, 20-24 hours, unit assumed
Experimental: as §1, §2

[5] = tested on: Micrococcus luteus ATCC 4698; settings: BHI agar, 35-37°C, 20-24 hours, unit assumed
Experimental: as §1, §2

[6] = tested on: Enterobacter aerogenes ATCC 13048; settings: BHI agar, 35-37°C, 20-24 hours, unit assumed
Experimental: as §1, §2

[7] = tested on: Streptococcus pyrogenes 2548 INDUC; settings: BHI agar, 35-37°C, 20-24 hours, unit assumed
Experimental: as §1, §2

[8] = tested on: Pseudomonas aeruginosa K799/61; settings: BHI agar, 35-37°C, 20-24 hours, unit assumed
Experimental: as §1, §2

[9] = tested on: Pseudomonas aeruginosa K799/WT; settings: BHI agar, 35-37°C, 20-24 hours, unit assumed
Experimental: as §1, §2

[10] = tested on: Staphylococcus aureus ATCC 6538P; settings: BHI agar, 35-37°C, 20-24 hours, unit assumed
Experimental: as §1, §2

[11] = tested on: Pseudomonas aeruginosa A5007; settings: BHI agar, 35-37°C, 20-24 hours, unit assumed
Experimental: as §1, §2

[12] = tested on: Staphylococcus aureus 642A; settings: BHI agar, 35-37°C, 20-24 hours, unit assumed
Experimental: as §1, §2

[13] = tested on: Acinetobacter calcoaceticus CMX 669; settings: BHI agar, 35-37°C, 20-24 hours, unit assumed
Experimental: as §1, §2

[14] = tested on: Staphylococcus aureus NCTC 10649; settings: BHI agar, 35-37°C, 20-24 hours, unit assumed
Experimental: as §1, §2

[15] = tested on: Streptococcus pyrogenes CONST; settings: BHI agar, 35-37°C, 20-24 hours, unit assumed
Experimental: as §1, §2

Escherichia coli SS = settings: BHI agar, 35-37°C, 20-24 hours, unit assumed
Experimental: as §1, §2

[16] = tested on: Streptococcus bovis A5169; settings: BHI agar, 35-37°C, 20-24 hours, unit assumed
Experimental: as §1, §2

Escherichia coli DC-2 = settings: BHI agar, 35-37°C, 20-24 hours, unit assumed
Experimental: as §1, §2

[17] = tested on: Micrococcus luteus ATCC 9341; settings: BHI agar, 35-37°C, 20-24 hours, unit assumed
Experimental: as §1, §2

[18] = tested on: Staphylococcus aureus CMX 553; settings: BHI agar, 35-37°C, 20-24 hours, unit assumed
Experimental: as §1, §2

[19] = tested on: Staphylococcus epidermidis 3519; settings: BHI agar, 35-37°C, 20-24 hours, unit assumed
Experimental: as §1, §2

[20] = tested on: Klebsiella pneumoniae ATCC 8045; settings: BHI agar, 35-37°C, 20-24 hours, unit assumed
Experimental: as §1, §2

Escherichia coli KNK 437 = settings: BHI agar, 35-37°C, 20-24 hours, unit assumed
Experimental: as §1, §2

Escherichia coli JUHL = settings: BHI agar, 35-37°C, 20-24 hours, unit assumed
Experimental: as §1, §2

[21] = tested on: Streptococcus agalactaciae CMX 508; settings: BHI agar, 35-37°C, 20-24 hours, unit assumed
Experimental: as §1, §2

Pseudomonas cepacia 296I = settings: BHI agar, 35-37°C, 20-24 hours, unit assumed
Experimental: as §1, §2

[22] = tested on: Staphylococcus aureus A5177; settings: BHI agar, 35-37°C, 20-24 hours, unit assumed
Experimental: as §1, §2

Escherichia coli H560 = settings: BHI agar, 35-37°C, 20-24 hours, unit assumed
Experimental: as §1, §2

[23] = tested on: Staphylococcus aureus 1775; settings: BHI agar, 35-37°C, 20-24 hours, trifluoroacetic acid salt, unit assumed
Experimental: as §1, §2

Measured: MIC values

CN1CCN(c2nc3c(-c4ccc(F)cc4)cc(C(=O)O)c(=O)n3cc2F)CC1 [Example 1, 3-Fluoro-9-(4-fluorophenyl)-2-(4-methylpiperazin-1-yl)-6H-6-oxo-pyrido[1,2-a]pyrimidine-7-carboxylic acid]
3.1 µg/mL: [7] | [9]
6.2 µg/mL: [2] | [3] | [11] | [15] | Escherichia coli KNK 437
< 0.05 µg/mL: Escherichia coli SS
0.78 µg/mL: [6] | [12] | [13] | [18] | [19] | [22]
12.5 µg/mL: Escherichia coli DC-2 | [21]
25 µg/mL: [1] | [4] | [5] | [16] | Pseudomonas cepacia 296I
50 µg/mL: [17]
0.2 µg/mL: [20]
0.39 µg/mL: [8] | [10] | [14] | Escherichia coli JUHL

CCc1cc(C(=O)O)c(=O)n2ccc(N3CCC(N)C3)cc12.Cl (centres unmarked) [Example 62, 8-(3-Amino-1-pyrrolidinyl)-1-ethyl-4H-quinolizin-4-one-3-carboxylic acid hydrochloride]
25 µg/mL: [2] | [4] | [7] | [15] | [16] | Escherichia coli DC-2 | [17] | Escherichia coli KNK 437 | [21]
0.39 µg/mL: Escherichia coli SS
50 µg/mL: [1]
12.5 µg/mL: [5] | [18] | [19] | [22]
0.78 µg/mL: [13]
6.2 µg/mL: [3] | [9] | [11] | [12] | [14]
0.05 µg/mL: [8]
3.1 µg/mL: Escherichia coli H560 | [6] | [10] | [20] | Escherichia coli JUHL | Pseudomonas cepacia 296I

CCc1cc(C(=O)O)c(=O)n2ccc(N3CCNC(C)C3)cc12.Cl (centres unmarked) [Example 64, 1-Ethyl-8-(3-methyl-1-piperazinyl)-4H-quinolizin-4-one-3-carboxylic acid hydrochloride]
100 µg/mL: [1] | Escherichia coli DC-2 | Escherichia coli KNK 437 | Pseudomonas cepacia 296I
1.56 µg/mL: Escherichia coli SS
25 µg/mL: [3] | [5] | [9] | [10] | [16] | [17]
6.2 µg/mL: [6] | [8] | [20] | Escherichia coli JUHL
> 100 µg/mL: [4]
50 µg/mL: [2] | [7] | [11] | [13] | [15] | [18] | [19] | [21] | [22]
12.5 µg/mL: Escherichia coli H560

CCc1cc(C(=O)O)c(=O)n2ccc(N3CCN(C)CC3)cc12.Cl [Example 65, 1-Ethyl-8-(4-methylpiperazin-1-yl)-4H-quinolizin-4-one-3-carboxylic acid hydrochloride]
> 100 µg/mL: [4] | Escherichia coli DC-2
100 µg/mL: [2] | [16] | Escherichia coli KNK 437 | [21] | Pseudomonas cepacia 296I
1.56 µg/mL: Escherichia coli SS
6.2 µg/mL: [20]
12.5 µg/mL: [6] | [10] | Escherichia coli JUHL
50 µg/mL: [1] | [7] | [15] | [18]
25 µg/mL: [3] | [5] | [8] | [9] | [11] | [13] | [17] | [19] | [22]

NC1CCN(c2nc3c(-c4ccc(F)cc4F)cc(C(=O)O)c(=O)n3cc2F)C1 (centres unmarked) [Example 162, 2-(3-Aminopyrrolidin-1-yl)-9-(2,4-difluorophenyl)-3-fluoro-6H-6-oxopyrido[1,2-a]pyrimidine-7-carboxylic acid trifluoroacetic acid salt]
6.2 µg/mL: [17]; trifluoroacetic acid salt | Pseudomonas cepacia 296I; trifluoroacetic acid salt
0.1 µg/mL: [10]; trifluoroacetic acid salt | [13]; trifluoroacetic acid salt | [14]; trifluoroacetic acid salt
0.2 µg/mL: [7]; trifluoroacetic acid salt | [12]; trifluoroacetic acid salt | [18]; trifluoroacetic acid salt | [19]; trifluoroacetic acid salt
0.02 µg/mL: [20]; trifluoroacetic acid salt
0.39 µg/mL: [9]; trifluoroacetic acid salt | [11]; trifluoroacetic acid salt | Escherichia coli DC-2; trifluoroacetic acid salt | Escherichia coli KNK 437; trifluoroacetic acid salt
0.78 µg/mL: [21]; trifluoroacetic acid salt
> 100 µg/mL: [23]
